Source: patent publication US9632088B2, “Methods and compositions for gamma-secretase assay” (MEMORIAL SLOAN-KETTERING CANCER CENTER, priority 2010, dated 2017)

Experiments:
[1] = target: T1, M146L PS1 NTF (γ-secretase active site) (Homo sapiens, UniProt P49768, M146L); assay: Photolabeling of PS1 NTF, N2a M146L PS1 membrane; format: binding, murine; details: probes 10 nM, 0.25% CHAPSO, normalized to JC8, excess L458 as competitor
T1 construct: total membrane
Method: (§1) Total cell membrane was pre-incubated in the presence of DMSO or 1 μM L458 in PIPES buffer containing 0.25% CHAPSO at 37° C. for 30 minutes. Then, photolabeling probes (JC8, L646 or GY4) (Li et al., 2000, Nature, 405:689-694, Chun et al., 2004, J Org. Chem., 69:7344-7347, Yang et al., 2009, Bioorg Med Chem. Lett., 19:922-925) at 10 nM were added and incubated for an additional 1 hour at 37° C. The reaction mixtures were irradiated at 350 nm for 45 minutes and solubilize with RIPA buffer. Biotinylated proteins in the soluble fraction were captured by Streptavidin resin (Pierce) overnight at 4° C. Bound proteins were eluted by boiling with SDS sample buffer and analyzed by western blotting with anti-PS1 NTF antibodies.
(§2) L646, GY4 and JC8, which photolabel the S2, S1, and S1′ subsites within the active site of PS1, respectively, were used for this study (FIG. 10b). Membranes isolated from N2a cells stably expressing wild-type (WT), M146L, or E280A PS1 were photolabeled with JC8, GY4 or L646 in the presence of 0.25% CHAPSO. […] After […] irradiation, biotinylated proteins were isolated with streptavidin beads and analyzed by western blotting with anti-PS1 NTF antibodies. […] To eliminate the effect of various amounts of γ-secretase existing in different cell lines, we normalized each probe with JC8 labeling in the same cell lines.

[2] = target: T2, WT PS1 NTF (γ-secretase active site) (Homo sapiens, UniProt P49768); assay: Photolabeling of PS1 NTF, N2a wild-type PS1 membrane; format: binding, murine; details: probes 10 nM, 0.25% CHAPSO, normalized to JC8, excess L458 as competitor
T2 construct: total membrane
Method: as §1, §2

[3] = target: T3, E280A PS1 NTF (γ-secretase active site) (Homo sapiens, UniProt P49768, E280A); assay: Photolabeling of PS1 NTF, N2a E280A PS1 membrane; format: binding, murine; details: probes 10 nM, 0.25% CHAPSO, normalized to JC8, excess L458 as competitor
T3 construct: total membrane
Method: as §1, §2

γ-secretase [4] = target: T4, γ-secretase (Homo sapiens, UniProt P49768); assay: 1536-well format ALPHA-based γ-secretase assay, control validation; format: biochemical; details: low control: 250 nM Compound E, 1% DMSO, full 1536-well plate
T4 construct: endogenous in cells; host or cells: HEK293 cells transiently transfected with myc-tagged N1-ΔE (substrate only)
Method: Based on the 384-well assay format described above, to the assay was miniaturized to a 1536-well format for automated high-throughput drug screening. Concentrations of SM320, protein A conjugated acceptor beads and streptavidin conjugated donor beads were titrated to minimize reagent usage. […] The assay was validated by comparing the high and low control signals from full 1536-well plates. The high controls contained 1% final DMSO concentration (v/v), while the low controls contains 250 nM of Compound E also at 1% final DMSO concentration (v/v).

γ-secretase [5] = target: T4, γ-secretase; assay: Cell-based Notch cleavage assay, western blot with SM320, HEK293 cells transfected with N1-ΔE; details: 1 μM inhibitor, 48 hours
Method: HEK293 cells were seeded in a 24-well plate and transfected with either truncated Notch1-ΔE construct (N1-ΔE) (gift from Dr. Raphael Kopan, Washington University School of Medicine, St. Louis, Mo.; (see Supplemental FIG. 1A of van Tetering et al., 2009, J. Biol. Chem., 284:31018-31027, for a diagram of N1-ΔE)) including cmyc (24), or empty pcDNA3.1 (−) (Invitrogen), using Fugene 6 transfection reagents (Roche). N1-ΔE includes the replete intracellular sequence, the transmembrane domain, and a truncated extracellular portion lacking LNR and the EGF repeat sequences (see Supplemental FIG. 1A of van Tetering et al., 2009, J. Biol. Chem., 284:31018-31027). […] The proteins were transferred to PVDF membrane (Millipore) using a semi-dry transfer emit (Bio-Rad) and analyzed by western blot with anti-myc antibody (prepared at Memorial Sloan-Kettering Cancer Center) and SM320 antibody.
HEK 293 cells were transiently transfected with truncated Notch1-ΔE construct including cmyc (N1-ΔE), a substrate of γ-secretase that is independent of ligand activation, as described in Experimental Methods. […] Cell lysates were analyzed by performing SDS-PAGE and immunoblotting the result with anti-myc and SM320 antibody (FIG. 6A). […] N1-ΔE was detected only in cells transfected with this construct (FIG. 6A, upper panel, lanes 1 and 2) but not in the mock transfected cells (FIG. 6A, upper panel, lane 3).

Row | Structure (SMILES) | Photolabeling of PS1 NTF (western blot) [1] | Photolabeling of PS1 NTF (western blot) [2] | Photolabeling of PS1 NTF (western blot) [3] | Average (ALPHA signal) (γ-secretase [4]) | detection of cleaved NICD band by SM320 (western blot) (γ-secretase [5])
1 | CC(C)C[C@H](NC(=O)[C@H](Cc1ccccc1)C[C@@H](O)[C@H](Cc1ccccc1)NC(=O)OC(C)(C)C)C(=O)N[C@@H](Cc1ccccc1)C(N)=O [L458] | completely prevented labeling | completely prevented labeling | completely prevented labeling | – | –
2 | CC(NC(=O)Cc1cc(F)cc(F)c1)C(=O)NC1N=C(c2ccccc2)c2ccccc2N(C)C1=O (centres unmarked) [Compound E] | – | – | – | 319 | not in the Compound E-treated cells
